Patent publication US10696615B2, “Prenylated hydroxystilbenes” (The University of Sydney, priority 2011, dated 2020)

What was measured:
Type in all cases: cell-based, human
CCRF-CEM = experiment: NCI in vitro cancer screen, Leukemia
K-562 = experiment: NCI in vitro cancer screen, Leukemia; settings: K-562
A549/ATCC = experiment: NCI in vitro cancer screen, Non-Small Cell Lung Cancer
EKVX = experiment: as above
NCI-H226 = experiment: as above; settings: NCI-H226
NCI-H322M = experiment: as above
NCI-H522 = experiment: as above; settings: NCI-H522
HCC-2998 = experiment: NCI in vitro cancer screen, Colon Cancer; settings: HCC-2998
HCT-116 = experiment: NCI in vitro cancer screen, Colon Cancer; settings: HCT-116
SW-620 = experiment: NCI in vitro cancer screen, Colon Cancer; settings: SW-620
SF-295 = experiment: NCI in vitro cancer screen, CNS Cancer; settings: SF-295
SNB-19 = experiment: NCI in vitro cancer screen, CNS Cancer; settings: SNB-19
SNB-75 = experiment: NCI in vitro cancer screen, CNS Cancer; settings: SNB-75
M14 = experiment: NCI in vitro cancer screen, Melanoma; settings: M14
MDA-MB-435 = experiment: NCI in vitro cancer screen, Melanoma; settings: MDA-MB-435
SK-MEL-28 = experiment: NCI in vitro cancer screen, Melanoma; settings: SK-MEL-28
SK-MEL-5 = experiment: NCI in vitro cancer screen, Melanoma; settings: SK-MEL-5
UACC-257 = experiment: NCI in vitro cancer screen, Melanoma; settings: UACC-257
IGROV1 = experiment: NCI in vitro cancer screen, Ovarian Cancer; settings: IGROV1
OVCAR-3 = experiment: NCI in vitro cancer screen, Ovarian Cancer; settings: OVCAR-3
OVCAR-8 = experiment: NCI in vitro cancer screen, Ovarian Cancer; settings: OVCAR-8
SK-OV-3 = experiment: NCI in vitro cancer screen, Ovarian Cancer; settings: SK-OV-3
786-0 = experiment: NCI in vitro cancer screen, Renal Cancer; settings: 786-0
ACHN = experiment: NCI in vitro cancer screen, Renal Cancer
RXF-393 = experiment: NCI in vitro cancer screen, Renal Cancer; settings: RXF-393
DU-145 = experiment: NCI in vitro cancer screen, Prostate Cancer; settings: DU-145
MCF7 = experiment: NCI in vitro cancer screen, Breast Cancer; settings: MCF7
[1] = test system: MDA-MB-231 (MDA-MB-231/ATCC); experiment: NCI in vitro cancer screen, Breast Cancer; settings: MDA-MB-231
HS 578T = experiment: NCI in vitro cancer screen, Breast Cancer
MDA-MB-468 = experiment: NCI in vitro cancer screen, Breast Cancer; settings: MDA-MB-468
[2] = Homo sapiens, read-out: LC50 (the source's name)

Compound: CC(C)=CCc1c(O)cc(/C=C/c2ccc(O)c(O)c2)c(CC=C(C)C)c1O [USYDS7, (E)-2,4-di(3-methyl-2-buten-1-yl)-3,3′,4′,5-tetrahydroxystilbene]
- TGI (CCRF-CEM): 8.48 µM
- GI50 (CCRF-CEM; Homo sapiens): 2730 nM
- CC50 (CCRF-CEM; [2]): 71.2 µM
- GI50 (K-562; Homo sapiens, K562): 2140 nM
- CC50 (K-562; Homo sapiens, K562, read-out: LC50 (the source's name)): 17.4 µM
- TGI (K-562): 4.78 µM
- TGI (A549/ATCC): 4.06 µM
- GI50 (A549/ATCC; Homo sapiens): 1880 nM
- CC50 (A549/ATCC; [2]): 8.78 µM
- TGI (EKVX): 14.7 µM
- GI50 (EKVX; Homo sapiens): 4.25 µM
- CC50 (EKVX; [2]): 44.9 µM
- GI50 (NCI-H226; Homo sapiens): 2280 nM
- LC50 (50% lethal concentration) (NCI-H226; Homo sapiens): 28.1 µM
- TGI (NCI-H226): 6.24 µM
- TGI (NCI-H322M): 18.1 µM
- GI50 (NCI-H322M; Homo sapiens): 5.29 µM
- LC50 (50% lethal concentration) (NCI-H322M; Homo sapiens): 44.7 µM
- GI50 (NCI-H522; Homo sapiens): 1610 nM
- CC50 (NCI-H522; [2]): 7.92 µM
- TGI (NCI-H522): 3.57 µM
- TGI (HCC-2998): 4.26 µM
- GI50 (HCC-2998; Homo sapiens): 1950 nM
- CC50 (HCC-2998; [2]): 9.34 µM
- TGI (HCT-116): 3.02 µM
- GI50 (HCT-116; Homo sapiens): 1570 nM
- LC50 (concentration killing 50% of cells) (HCT-116; Homo sapiens): 5.82 µM
- GI50 (SW-620; Homo sapiens): 1580 nM
- CC50 (SW-620; [2]): 6.42 µM
- TGI (SW-620): 3.19 µM
- GI50 (SF-295; Homo sapiens): 3.37 µM
- CC50 (SF-295; [2]): 44.6 µM
- TGI (SF-295): 11.4 µM
- GI50 (SNB-19; Homo sapiens): 2800 nM
- CC50 (SNB-19; [2]): 39.9 µM
- TGI (SNB-19): 8.64 µM
- GI50 (SNB-75; Homo sapiens): 2980 nM
- CC50 (SNB-75; [2]): 49.1 µM
- TGI (SNB-75): 12.8 µM
- GI50 (M14; Homo sapiens): 1790 nM
- CC50 (M14; [2]): 7.73 µM
- TGI (M14): 3.71 µM
- GI50 (MDA-MB-435; Homo sapiens): 2290 nM
- CC50 (MDA-MB-435; [2]): 31.7 µM
- TGI (MDA-MB-435): 6.47 µM
- GI50 (SK-MEL-28; Homo sapiens): 3.65 µM
- LC50 (SK-MEL-28; Homo sapiens): 36.7 µM
- TGI (SK-MEL-28): 11.8 µM
- GI50 (SK-MEL-5; Homo sapiens): 1800 nM
- CC50 (SK-MEL-5; [2]): 7.54 µM
- TGI (SK-MEL-5): 3.68 µM
- GI50 (UACC-257; Homo sapiens): 2180 nM
- CC50 (UACC-257; [2]): 23 µM
- TGI (UACC-257): 5.93 µM
- GI50 (IGROV1; Homo sapiens, IGROV-1): 3.12 µM
- CC50 (IGROV1; Homo sapiens, IGROV-1, read-out: LC50 (the source's name)): 36.7 µM
- TGI (IGROV1): 8.39 µM
- GI50 (OVCAR-3; Homo sapiens): 1820 nM
- CC50 (OVCAR-3; [2]): 6.19 µM
- TGI (OVCAR-3): 3.36 µM
- GI50 (OVCAR-8; Homo sapiens): 1680 nM
- CC50 (OVCAR-8; [2]): 7.95 µM
- TGI (OVCAR-8): 3.65 µM
- GI50 (SK-OV-3; Homo sapiens): 5.98 µM
- CC50 (SK-OV-3; [2]): 46.5 µM
- TGI (SK-OV-3): 19.4 µM
- TGI (786-0): 4.47 µM
- GI50 (786-0; Homo sapiens): 1990 nM
- LC50 (50% net cell kill) (786-0; Homo sapiens): 10.2 µM
- TGI (ACHN): 9.12 µM
- GI50 (ACHN; Homo sapiens): 2580 nM
- CC50 (ACHN; [2]): 37.6 µM
- GI50 (RXF-393; Homo sapiens): 1530 nM
- CC50 (RXF-393; [2]): 6.8 µM
- TGI (RXF-393): 3.23 µM
- TGI (DU-145): 7.62 µM
- GI50 (DU-145; Homo sapiens): 2650 nM
- CC50 (DU-145; [2]): 28.3 µM
- GI50 (MCF7; Homo sapiens): 2100 nM
- CC50 (MCF7; [2]): 57.9 µM
- TGI (MCF7): 12.0 µM
- GI50 ([1]; Homo sapiens): 1490 nM
- CC50 [1, 2]: 10.7 µM
- TGI [1]: 3.89 µM
- TGI (HS 578T): 8.09 µM
- GI50 (HS 578T; Homo sapiens): 1840 nM
- CC50 (HS 578T; [2]): 50.9 µM
- GI50 (MDA-MB-468; Homo sapiens): 2120 nM
- CC50 (MDA-MB-468; [2]): 13.9 µM
- TGI (MDA-MB-468): 4.84 µM
